We go through 23 compounds from patent US11760722B2 (priority 2022, dated 2023).

Molecules are shown by their SMILES. Several values for one entry are separate records, joined by “and”; a condition that tells them apart may be missing. Identical values can stand only once. Like-named read-outs stand apart in the source and are kept apart here.

The subject of assay [1] is human coronavirus (HCoV) 229E. The assay is described as follows: microbe, parasite or virus in culture. The format is cell-based, human coronavirus 229E. The note with it: MRCS cells, HCoV 229E, 3 days, CellTiter Glo, read-out: 229E CPE EC50. On the technique in general: In ATP-based viability assays light output follows the ATP content of the culture.
Method: Test compounds were provided by the sponsor. Reference compound remdesivir was provided by WuXi AppTec. Compounds were assayed at 8 concentrations (to be defined by sponsor), in duplicate wells.
MRCS cells were obtained from the ATCC, and maintained in the Minimum Essential Medium supplemented with 10% FBS, 1% L-glutamine, 1% NEAA and 1% penicillin-streptomycin. Minimum Essential Medium supplemented with 5% FBS, 1% L-glutamine, 1% NEAA and 1% penicillin-streptomycin was used as the assay medium.
Cells were seeded in 96 well plates, in 100 μl per well of assay medium, and cultured at 37° C. and 5% CO2 overnight. Next day, test compound was diluted with assay medium and then added into the cells, 50 μl per well. Then 50 μl per well of assay medium diluted virus was added. The final volume of the cell culture was 200 μl per well. […] The CPE were measured by CellTiter Glo following the manufacturer's manual. The antiviral activity of compounds was calculated based on the protection of the virus-induced CPE at each concentration normalized by the virus control.
EC50 and CC50 values were calculated using the GraphPad Prism software using the nonlinear regression model of log(inhibitor) vs. response—Variable slope (four parameters).
In assay [2] the test system is SARS-CoV-2 replicon. The experiment in a line: microbe, parasite or virus in culture. The note with it: read-out: Replicon EC50. The format is cell-based. (In general: In antiviral work, replicon cells carry a viral genome segment that copies itself.)
Where [3] appears, read: unidentified human coronavirus, 72 h.
The mark [4] stands for this setting: Severe acute respiratory syndrome coronavirus 2, Huh-7, 24 h.

As usually defined, the EC50 is the concentration giving half of the maximal effect.

Consider `CC(C)(C)[C@H](NC(=O)CC12CC(C1)C2)C(=O)N1C[C@H]2[C@@H]([C@H]1C(=O)N[C@H](C#N)C[C@@H]1CCNC1=O)C2(C)C` [Compound 40], for which the EC50 in assay [1] is 3260 nM; in assay [1] (setting [3]), 3120 nM; in assay [2] (setting [4]), 270 nM; in assay [2], 320 nM and 360 nM and 390 nM.
For the compound `CC(C)(C)[C@H](NS(=O)(=O)c1ccc(F)cc1)C(=O)N1C[C@H]2[C@@H]([C@H]1C(=O)N[C@H](C#N)C[C@@H]1CCNC1=O)C2(C)C` [Compound 53, (1R,2S,5S)—N—((S)-1-cyano-2-((S)-2-oxopyrrolidin-3-yl)ethyl)-3-((S)-2-((4-fluorophenyl)sulfonamido)-3,3-dimethylbutanoyl)-6,6-dimethyl-3-azabicyclo[3.1.0]hexane-2-carboxamide], the EC50 stood at 364 nM in assay [1], 265 nM in assay [1] (setting [3]), 51 nM in assay [2] (setting [4]) and 100 nM in assay [2].
On the same counts, the results for `CC(C)(C)[C@H](NS(=O)(=O)c1ccc(Cl)s1)C(=O)N1C[C@H]2[C@@H]([C@H]1C(=O)N[C@H](C#N)C[C@@H]1CCNC1=O)C2(C)C` [Compound 54] are 127 nM, 106 nM, 54 nM and 58 nM.
With `CC(C)(C)[C@H](NC(=S)NC1CCCC1)C(=O)N1C[C@H]2[C@@H]([C@H]1C(=O)N[C@H](C#N)C[C@@H]1CCNC1=O)C2(C)C` [Compound 70], the EC50 was 4990 nM in assay [1] (setting [3]) and 1790 nM in assay [2] (setting [4]).
As to `CC(C)NC(=S)N[C@H](C(=O)N1C[C@H]2[C@@H]([C@H]1C(=O)N[C@H](C#N)C[C@@H]1CCNC1=O)C2(C)C)C(C)(C)C` [Compound 73], the EC50 was 1320 nM in assay [1] (setting [3]) and 140 nM in assay [2] (setting [4]).
For `CC(C)(C)[C@H](NC(=S)Nc1ccccc1)C(=O)N1C[C@H]2[C@@H]([C@H]1C(=O)N[C@H](C#N)C[C@@H]1CCNC1=O)C2(C)C` [Compound 74], in that order: 11500 nM and 490 nM.
For the compound `CC(C)(C)[C@H](NC(=O)C(F)(Cl)C(F)(F)F)C(=O)N1C[C@H]2[C@@H]([C@H]1C(=O)N[C@H](C#N)C[C@@H]1CCNC1=O)C2(C)C` (stereo partly drawn) [Compound 75], the EC50 was 118 nM in assay [1], 92 nM in assay [1] (setting [3]), 6.9 nM in assay [2] (setting [4]) and 13 nM in assay [2].
For `CC(C)(C)[C@H](NC(=S)NC1CC1)C(=O)N1C[C@H]2[C@@H]([C@H]1C(=O)N[C@H](C#N)C[C@@H]1CCNC1=O)C2(C)C` [Compound 76], in that order: 7550 nM, 6320 nM, 380 nM and 480 nM.
As for `CN(C)C(=S)N[C@H](C(=O)N1C[C@H]2[C@@H]([C@H]1C(=O)N[C@H](C#N)C[C@@H]1CCNC1=O)C2(C)C)C(C)(C)C` [Compound 77], the EC50 in assay [1] (setting [3]) amounted to 21100 nM; in assay [2] (setting [4]), 4120 nM.
On to `CNC(=S)N[C@@H](CC1CCC1)C(=O)N1C[C@H]2[C@@H]([C@H]1C(=O)N[C@H](C#N)C[C@@H]1CCNC1=O)C2(C)C` [Compound 78], for which the EC50 in assay [1] (setting [3]) was 12600 nM; in assay [2] (setting [4]), 1860 nM.
As to `CC(C)(C)[C@H](NS(=O)(=O)c1cccc(F)c1)C(=O)N1C[C@H]2[C@@H]([C@H]1C(=O)N[C@H](C#N)C[C@@H]1CCNC1=O)C2(C)C` [Compound 79], the EC50 in assay [1] came out at 266 nM; in assay [1] (setting [3]) it was 256 nM; in assay [2] (setting [4]) it was 81 nM; in assay [2], 140 nM.
As to `CC(C)(C)[C@H](NC(=O)C(F)(F)C(F)(F)Cl)C(=O)N1C[C@H]2[C@@H]([C@H]1C(=O)N[C@H](C#N)C[C@@H]1CCNC1=O)C2(C)C` [Compound 80], the EC50 in assay [1] stood at 116 nM; in assay [1] (setting [3]), 92 nM; in assay [2] (setting [4]) it was 6.5 nM; in assay [2], 13 nM.
For the compound `CC(C)(C)[C@H](NC(=O)C12CC(C(F)(F)F)(C1)C2)C(=O)N1C[C@H]2[C@@H]([C@H]1C(=O)N[C@H](C#N)C[C@@H]1CCNC1=O)C2(C)C` [Compound 81], the EC50 in assay [1] (setting [3]) came out at 6860 nM; in assay [2] (setting [4]) it was 1990 nM.
In the case of `CC(C)(C)[C@H](NS(=O)(=O)c1ccc2c(c1)CCO2)C(=O)N1C[C@H]2[C@@H]([C@H]1C(=O)N[C@H](C#N)C[C@@H]1CCNC1=O)C2(C)C` [Compound 83], the EC50 in assay [1] is 1060 nM; in assay [1] (setting [3]), 838 nM; in assay [2] (setting [4]), 44 nM; in assay [2] it was 72 nM.
In the case of `C=CS(=O)(=O)N[C@H](C(=O)N1C[C@H]2[C@@H]([C@H]1C(=O)N[C@H](C#N)C[C@@H]1CCNC1=O)C2(C)C)C(C)(C)C` [Compound 84], the EC50 in assay [1] (setting [3]) was determined as 910 nM; in assay [2] (setting [4]), 290 nM.
For `CC(C)(C)[C@H](NS(=O)(=O)C[C@@]12CC[C@@H](CC1=O)C2(C)C)C(=O)N1C[C@H]2[C@@H]([C@H]1C(=O)N[C@H](C#N)C[C@@H]1CCNC1=O)C2(C)C` [Compound 86], in that order: 9630 nM and 4020 nM.
Consider `CC(C)(C)NC(=O)N[C@H](C(=O)N1C[C@H]2[C@@H]([C@H]1C(=O)N[C@H](C#N)C[C@@H]1CCNC1=O)C2(C)C)C(C)(C)C` [Compound 87], for which the EC50 in assay [1] came to 14000 nM; in assay [1] (setting [3]) it was 9070 nM; in assay [2] (setting [4]) it was 450 nM; in assay [2] it was 800 nM.
On the same counts, the results for `CC(C#N)C(=O)N[C@H](C(=O)N1C[C@H]2[C@@H]([C@H]1C(=O)N[C@H](C#N)C[C@@H]1CCNC1=O)C2(C)C)C(C)(C)C` (stereo partly drawn) [Compound 88] are 4560 nM, 2500 nM, 190 nM and 250 nM.
For `CC(C)(C)[C@H](NS(=O)(=O)c1ccc(OC(F)(F)F)cc1)C(=O)N1C[C@H]2[C@@H]([C@H]1C(=O)N[C@H](C#N)C[C@@H]1CCNC1=O)C2(C)C` [Compound 89], the EC50 in assay [1] came to 468 nM; in assay [1] (setting [3]) it was 322 nM; in assay [2] (setting [4]) it was 140 nM; in assay [2], 160 nM.
For `CC(C)(C)[C@H](NS(=O)(=O)c1ccc(C(F)(F)F)cc1)C(=O)N1C[C@H]2[C@@H]([C@H]1C(=O)N[C@H](C#N)C[C@@H]1CCNC1=O)C2(C)C` [Compound 90], the EC50 in assay [1] is 387 nM; in assay [1] (setting [3]) it was 254 nM; in assay [2], 67 nM and 76 nM.
`CC1(C)[C@@H]2[C@@H](C(=O)N[C@H](C#N)C[C@@H]3CCNC3=O)N(C(=O)[C@@H](NC(=O)C(F)(F)F)C34CC(C(F)(F)F)(C3)C4)C[C@@H]21` [Compound 91]: the EC50 in assay [1] (setting [3]) was determined as 10900 nM; in assay [2] (setting [4]), 330 nM.
As to `C=C(C(=O)N[C@H](C(=O)N1C[C@H]2[C@@H]([C@H]1C(=O)N[C@H](C#N)C[C@@H]1CCNC1=O)C2(C)C)C(C)(C)C)C(F)(F)F` [Compound 92], the EC50 was determined as 17100 nM in assay [1] (setting [3]) and 1760 nM in assay [2] (setting [4]).
In the case of `CC(C)(C)[C@H](NC(=O)c1ccc(F)cc1)C(=O)N1C[C@H]2[C@@H]([C@H]1C(=O)N[C@H](C#N)C[C@@H]1CCNC1=O)C2(C)C` [Compound 94], the EC50 came out at 4290 nM in assay [1] (setting [3]) and 960 nM in assay [2] (setting [4]).
